Patent US9724347B2, “1-pyrazolyl-3-(4-((2-anilinopyrimidin-4-yl)oxy)napththalen-1-yl) ureas as P38 MAP knase inhibitors” (Respivert Ltd., priority 2011, dated 2017)
Marks after values point to notes of the source that are not given here.

Columns and labels:
p38MAPKγ (MAPK12) = p38MAPKγ (MAPK12) (Homo sapiens (Human), UniProt P53778); experiment: p38 MAPKγ enzyme inhibition (FRET, Z-LYTE); format: biochemical
How it was run: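 Z-LYTE FRET kinase format on donor/acceptor-labeled synthetic peptide; protease development 1 hr cleaves only non-phosphorylated peptide. Phosphorylation derived from coumarin/fluorescein emission ratio, low ratio indicating high phosphorylation.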

d-U937 cells = experiment: Cell viability: MTT assay; format: cell-based, human; conditions: 1 μg/mL
How it was run: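 Differentiated U937 cells exposed to compound at 1 or 10 μg/mL final, either 4 h in 5% FCS RPMI1640 or 24 h in 10% FCS RPMI1640. After medium replacement, MTT added 1 h, formazan dissolved in DMSO, A550 read. % viability loss vs 0.5% DMSO vehicle; apparent viability gain shown as negative %.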

PBMC cells = experiment: Cell mitosis assay; format: cell-based, human
Experimental: Peripheral blood mononucleocytes (PBMCs) from healthy subjects were separated from whole blood (Quintiles, London, UK) using a density gradient (Histopaque®-1077, Sigma-Aldrich, Poole, UK). The PBMCs (3 million cells per sample) were subsequently treated with 2% PHA (Sigma-Aldrich, Poole, UK) for 48 hr, followed by a 20 hr exposure to varying concentrations of test compounds. At 2 hr before collection, PBMCs were treated with demecolcine (0.1 μg/mL; Invitrogen, Paisley, UK,) to arrest cells in metaphase. To observe mitotic cells, PBMCs were permeabilised and fixed by adding Intraprep (50 μL; Beckman Coulter, France), and stained with anti-phospho-histone 3 ([…]; #9701; Cell Signalling, Danvers, Mass.) and propidium iodide (1 mg/mL; Sigma-Aldrich, Poole, UK,) as previously described (Muehlbauer P. A. and Schuler M. J., Mutation Research, 2003, 537:117-130). Fluorescence was observed using an ATTUNE flow cytometer (Invitrogen, Paisley, UK), gating for lymphocytes.

GSK 3α enzyme isoform = GSK 3α enzyme isoform (Homo sapiens (Human), UniProt P49840); experiment: GSK 3α enzyme inhibition (FRET, Z-LYTE); format: biochemical; conditions: read-out: IC50 Values for Enzyme Inhibition GSK3α
How it was run: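 Human GSK3α (500 ng/mL stock) was preincubated 2 h at RT with compound (stocks 4, 0.4, 0.04 or 0.004 μg/mL), then given FRET peptide (8 μM stock) and ATP (40 μM stock) for 1 h. After 1 h protease development, the coumarin/fluorescein emission ratio gave phosphorylation level.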

[1] = system: ICAM-1 expression in BEAS2B cells; experiment: Poly I:C-induced ICAM-1 expression in BEAS2B cells; format: cell-based, human; conditions: Homo sapiens, BEAS-2B, read-out: PolyIC/ICAM1 IC50 (BEAS2B)
How it was run: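 BEAS2B human bronchial epithelial cells pre-incubated 2 h with compound, then transfected with 1 μg/mL poly I:C plus Oligofectamine. After 18 h, surface ICAM-1 measured by cell-based ELISA (OD450–655), normalised to crystal violet cell count (OD595). Inhibition calculated against vehicle control.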

[2] = target: p38 MAPKα isoform (MAPK14) (Homo sapiens (Human), UniProt Q16539); experiment: p38 MAPKα enzyme inhibition (FRET, Z-LYTE); format: biochemical
HRV16 = HRV16 induced CPE in MRC5 cells; format: cell-based, human rhinovirus; conditions: tested at 0.0008 μg/mL, low cell viability at 0.04 μg/mL
Experimental: The supernatants were aspirated, and then fresh media added followed by incubation for 4 days. Where appropriate, cells were pre-incubated with compound or DMSO for 2 hr, and the compounds and DMSO added again after washout of the virus.
The percentage inhibition for each well was calculated. The IC50 value was calculated from the concentration-response curve generated by the serial dilutions of the test compounds.

p38MAPKγ (MAPK12), sequence (P53778 whole entry): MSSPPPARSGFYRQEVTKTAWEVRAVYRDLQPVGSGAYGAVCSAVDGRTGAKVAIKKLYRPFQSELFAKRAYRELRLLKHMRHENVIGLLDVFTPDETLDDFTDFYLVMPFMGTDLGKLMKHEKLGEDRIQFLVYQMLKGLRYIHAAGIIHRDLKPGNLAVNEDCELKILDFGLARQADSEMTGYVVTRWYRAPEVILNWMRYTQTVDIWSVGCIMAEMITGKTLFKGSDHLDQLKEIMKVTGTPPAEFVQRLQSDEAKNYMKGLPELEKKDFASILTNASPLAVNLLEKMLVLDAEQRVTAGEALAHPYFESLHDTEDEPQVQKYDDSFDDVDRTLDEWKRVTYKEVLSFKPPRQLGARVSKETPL
p38 MAPKα isoform (MAPK14), sequence (Q16539 whole entry, canonical isoform): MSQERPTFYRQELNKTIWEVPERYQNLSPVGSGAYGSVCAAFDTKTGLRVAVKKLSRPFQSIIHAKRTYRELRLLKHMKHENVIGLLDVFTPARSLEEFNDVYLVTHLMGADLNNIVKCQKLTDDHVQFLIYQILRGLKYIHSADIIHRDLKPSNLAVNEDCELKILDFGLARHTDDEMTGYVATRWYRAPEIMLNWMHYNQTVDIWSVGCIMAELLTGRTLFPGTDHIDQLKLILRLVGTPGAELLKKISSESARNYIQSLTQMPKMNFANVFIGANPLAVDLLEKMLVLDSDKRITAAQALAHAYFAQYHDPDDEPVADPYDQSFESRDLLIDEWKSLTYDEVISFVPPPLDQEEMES
GSK 3α enzyme isoform, sequence (P49840 whole entry, canonical isoform): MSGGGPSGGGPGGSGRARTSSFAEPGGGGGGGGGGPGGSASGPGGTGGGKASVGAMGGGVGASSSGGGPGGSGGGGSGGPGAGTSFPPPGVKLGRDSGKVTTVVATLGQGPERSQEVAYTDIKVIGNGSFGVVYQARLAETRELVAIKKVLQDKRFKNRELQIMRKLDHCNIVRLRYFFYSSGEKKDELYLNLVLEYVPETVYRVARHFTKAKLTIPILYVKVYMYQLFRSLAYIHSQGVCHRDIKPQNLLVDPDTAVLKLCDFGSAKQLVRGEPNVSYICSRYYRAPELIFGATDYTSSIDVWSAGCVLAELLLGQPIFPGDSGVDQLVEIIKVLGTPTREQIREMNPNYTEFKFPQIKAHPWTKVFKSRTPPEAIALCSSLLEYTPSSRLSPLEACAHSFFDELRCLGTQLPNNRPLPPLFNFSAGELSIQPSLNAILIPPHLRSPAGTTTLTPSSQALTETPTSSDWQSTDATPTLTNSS

| Compound | IC50 (p38MAPKγ (MAPK12)) [nM] | MTT Assay Cell viability at time point in d-U937 Cells (d-U937 cells; 4 h) | MTT Assay Cell viability at time point in d-U937 Cells (d-U937 cells; 24 h) | Mitosis Assay % inhibition in PBMC Cells (PBMC cells; 5 μg/mL) [%] | IC50 (GSK 3α enzyme isoform) [nM] | IC50 [1] [nM] | IC50 [2] [nM] | Mitosis Assay % inhibition in PBMC Cells (PBMC cells; 1 μg/mL) [%] | HRV CPE (MRC5) % inhibition (HRV16) [%*] |
| --- | --- | --- | --- | --- | --- | --- | --- | --- | --- |
| Cc1ccc(-n2nc(C(C)(C)C)cc2NC(=O)Nc2ccc(Oc3ccnc(Nc4cccc(O)c4)n3)c3ccccc23)cc1 [Example 2, 1-(3-(tert-Butyl)-1-(p-tolyl)-1H-pyrazol-5-yl)-3-(4-((2-((3-hydroxyphenyl)amino)pyrimidin-4-yl)oxy)naphthalen-1-yl)urea] | 557 | −ve (−ve and +ve indicate the value is below and above respectively, the no significant effect threshold defined as 30% inhibition at 1 μg/mL at the time point indicated) | −ve (−ve and +ve indicate the value is below and above respectively, the no significant effect threshold defined as 30% inhibition at 1 μg/mL at the time point indicated) | 70.6 | – | – | – | – | – |
| COc1ccc(-n2nc(C(C)(C)C)cc2NC(=O)Nc2ccc(Oc3ccnc(Nc4ccccc4)n3)c3ccccc23)cc1 [Example 7, 1-(3-(tert-butyl)-1-(4-methoxyphenyl)-1H-pyrazol-5-yl)-3-(4-((2-(phenylamino)pyrimidin-4-yl)oxy)naphthalen-1-yl)urea] | 1700 | −ve (−ve and +ve indicate the value is below and above respectively, the no significant effect threshold defined as 30% inhibition at 1 μg/mL at the time point indicated) | −ve (−ve and +ve indicate the value is below and above respectively, the no significant effect threshold defined as 30% inhibition at 1 μg/mL at the time point indicated) | 10.2 | 3500 | 23 | 170 | – | – |
| COc1ccc(Nc2nccc(Oc3ccc(NC(=O)Nc4cc(C(C)(C)C)nn4-c4ccc(C)cc4)c4ccccc34)n2)c(OC)c1 [Example 8, 1-(3-(tert-butyl)-1-(p-tolyl)-1H-pyrazol-5-yl)-3-(4-((2-((2,4-dimethoxyphenyl)amino)pyrimidin-4-yl)oxy)naphthalen-1-yl)urea] | > 15500 | −ve (−ve and +ve indicate the value is below and above respectively, the no significant effect threshold defined as 30% inhibition at 1 μg/mL at the time point indicated) | −ve (−ve and +ve indicate the value is below and above respectively, the no significant effect threshold defined as 30% inhibition at 1 μg/mL at the time point indicated) | – | > 15500 | 22 | 151 | 15.6 | – |
| Cc1ccc(-n2nc(C(C)(C)C)cc2NC(=O)Nc2ccc(Oc3ccnc(Nc4ccc(O)cc4)n3)c3ccccc23)cc1 [Example 9, 1-(3-(tert-butyl)-1-(p-tolyl)-1H-pyrazol-5-yl)-3-(4-((2-((4-hydroxyphenyl)amino)pyrimidin-4-yl)oxy)naphthalen-1-yl)urea] | 760 | −ve (−ve and +ve indicate the value is below and above respectively, the no significant effect threshold defined as 30% inhibition at 1 μg/mL at the time point indicated) | −ve (−ve and +ve indicate the value is below and above respectively, the no significant effect threshold defined as 30% inhibition at 1 μg/mL at the time point indicated) | 50.3 | 3260 | – | 171 | – | – |
| CCOc1ccc(Nc2nccc(Oc3ccc(NC(=O)Nc4cc(C(C)(C)C)nn4-c4ccc(C)cc4)c4ccccc34)n2)cc1 [Example 22, 1-(3-(tert-butyl)-1-(p-tolyl)-1H-pyrazol-5-yl)-3-(4-((2-((4-ethoxyphenyl)amino)pyrimidin-4-yl)oxy)naphthalen-1-yl)urea] | > 1590 | −ve (−ve and +ve indicate the value is below and above respectively, the no significant effect threshold defined as 30% inhibition at 1 μg/mL at the time point indicated) | −ve (−ve and +ve indicate the value is below and above respectively, the no significant effect threshold defined as 30% inhibition at 1 μg/mL at the time point indicated) | 70.8 | > 1590 | 13 | 281 | – | – |
| COc1cc(Nc2nccc(Oc3ccc(NC(=O)Nc4cc(C(C)(C)C)nn4-c4ccc(C)cc4)c4ccccc34)n2)ccc1O [Example 25, 1-(3-(tert-butyl)-1-(p-tolyl)-1H-pyrazol-5-yl)-3-(4-((2-((4-hydroxy-3-methoxyphenyl)amino)pyrimidin-4-yl)oxy)naphthalen-1-yl)urea] | 281 | −ve (−ve and +ve indicate the value is below and above respectively, the no significant effect threshold defined as 30% inhibition at 1 μg/mL at the time point indicated) | −ve (−ve and +ve indicate the value is below and above respectively, the no significant effect threshold defined as 30% inhibition at 1 μg/mL at the time point indicated) | 63.5 | > 1590 | 2.5 | 77 | 29.1 | 33 |
| COc1ccc(Nc2nccc(Oc3ccc(NC(=O)Nc4cc(C(C)(C)C)nn4-c4ccc(C)cc4)c4ccccc34)n2)cc1OC [Example 27, 1-(3-(tert-butyl)-1-(p-tolyl)-1H-pyrazol-5-yl)-3-(4-((2-((3,4-dimethoxyphenyl)amino)pyrimidin-4-yl)oxy)naphthalen-1-yl)urea] | 535 | +ve (−ve and +ve indicate the value is below and above respectively, the no significant effect threshold defined as 30% inhibition at 1 μg/mL at the time point indicated) | −ve (−ve and +ve indicate the value is below and above respectively, the no significant effect threshold defined as 30% inhibition at 1 μg/mL at the time point indicated) | 11.2 | 2110 | 1.6 | 105 | – | – |
| Cc1ccc(-n2nc(C(C)(C)C)cc2NC(=O)Nc2ccc(Oc3ccnc(Nc4ccc(O)cc4O)n3)c3ccccc23)cc1 [Example 32, 1-(3-(tert-butyl)-1-(p-tolyl)-1H-pyrazol-5-yl)-3-(4-((2-((2,4-dihydroxyphenyl)amino)pyrimidin-4-yl)oxy)naphthalen-1-yl)urea] | > 1620 | −ve (−ve and +ve indicate the value is below and above respectively, the no significant effect threshold defined as 30% inhibition at 1 μg/mL at the time point indicated) | −ve (−ve and +ve indicate the value is below and above respectively, the no significant effect threshold defined as 30% inhibition at 1 μg/mL at the time point indicated) | 33.0 | > 1620 | 21 | 189 | – | – |
| COc1ccc(-n2nc(C(C)(C)C)cc2NC(=O)Nc2ccc(Oc3ccnc(Nc4ccc(O)cc4)n3)c3ccccc23)cc1 [Example 33, 1-(3-(tert-butyl)-1-(4-methoxyphenyl)-1H-pyrazol-5-yl)-3-(4-((2-((4-hydroxyphenyl)amino)pyrimidin-4-yl)oxy)naphthalen-1-yl)urea] | 264 | −ve (−ve and +ve indicate the value is below and above respectively, the no significant effect threshold defined as 30% inhibition at 1 μg/mL at the time point indicated) | −ve (−ve and +ve indicate the value is below and above respectively, the no significant effect threshold defined as 30% inhibition at 1 μg/mL at the time point indicated) | 67.2 | 2380 | 2.6 | 60 | – | – |
